# Assay results: patent publication US20050136017A1, “Hair relaxing composition comprising at least one non-hydroxide imine” (priority 2003, published 2005)
# How the values were obtained:
# [1] = Relaxing of naturally curly/frizzy African hair with a simplified aqueous relaxing composition
# Description: (§1) A simplified relaxing composition was prepared, containing, as relaxing active agent, 1,1-dimethylbiguanide (Registry Number [1115-70-4]) at a concentration of 0.75M in water. The pH of the composition was 13.6. The composition was applied to naturally curly/frizzy African hair for 15 minutes at a temperature of 30° C.
# (§2) A simplified relaxing composition was prepared, containing, as relaxing active agent, 1,1-dimethylbiguanide (Registry Number [1115-70-4]) at a concentration of 0.5M in water. The pH of the composition was 13.5. This composition was applied to naturally curly/frizzy African hair for 25 minutes at a temperature of 30° C.
# (§3) A simplified relaxing composition was prepared, containing as relaxing active agent, 1,3,4,6,7,8-hexahydro-2H-pyrimido[1,2-a]pyrimidine (Registry Number [5807-14-7]) at a concentration of 0.7M in water. The pH of the composition was 13.5. This composition was applied to naturally curly/frizzy African hair for 15 minutes at a temperature of 30° C.
# (§4) A simplified relaxing composition was prepared, containing as relaxing active agent, 1,3,4,6,7,8-hexahydro-2H-pyrimido[1,2-a]pyrimidine (Registry Number [5807-14-7]) at a concentration of 0.5M in water. The pH of the composition was 13.4. This composition was applied to naturally curly/frizzy African hair for 25 minutes at a temperature of 30° C.
# [2] = pH of the simplified relaxing composition; assay type: physicochemical
# Description: as §1, §2, §3, §4
# [3] = 0.5M in water (Examples 2 and 4)
SMILES,"hair relaxing result (relaxing, combing/styling, feel) ([1]; 0.5M in water, pH 13.5, applied 25 minutes at 30° C. (Example 2))","hair relaxing result (relaxing, combing/styling, feel) ([1]; 0.75M in water, pH 13.6, applied 15 minutes at 30° C. (Example 1))","pH of the composition [2, 3]",pH of the composition ([2]; 0.75M in water (Example 1)),"hair relaxing result (relaxing, combing/styling, feel) ([1]; 0.5M in water, pH 13.4, applied 25 minutes at 30° C. (Example 4))","hair relaxing result (relaxing, combing/styling, feel) ([1]; 0.7M in water, pH 13.5, applied 15 minutes at 30° C. (Example 3))",pH of the composition ([2]; 0.7M in water (Example 3))
"CN(C)C(=N)NC(=N)N [1,1-dimethylbiguanide]","efficiently relaxed, easy to comb and style, and felt soft","efficiently relaxed, easy to comb and style, and felt soft",13.5,13.6,–,–,–
"C1CN=C2NCCCN2C1 [1,3,4,6,7,8-hexahydro-2H-pyrimido[1,2-a]pyrimidine]",–,–,13.4,–,"efficiently relaxed, easy to comb and style, and felt soft","efficiently relaxed, easy to comb and style, and felt soft",13.5
